The source made the active and inactive calls.
What was measured:
[1] = target: T1, Peroxisomal acyl-coenzyme A oxidase 1 (Homo sapiens, UniProt Q15067)
T1 sequence (Q15067 whole entry): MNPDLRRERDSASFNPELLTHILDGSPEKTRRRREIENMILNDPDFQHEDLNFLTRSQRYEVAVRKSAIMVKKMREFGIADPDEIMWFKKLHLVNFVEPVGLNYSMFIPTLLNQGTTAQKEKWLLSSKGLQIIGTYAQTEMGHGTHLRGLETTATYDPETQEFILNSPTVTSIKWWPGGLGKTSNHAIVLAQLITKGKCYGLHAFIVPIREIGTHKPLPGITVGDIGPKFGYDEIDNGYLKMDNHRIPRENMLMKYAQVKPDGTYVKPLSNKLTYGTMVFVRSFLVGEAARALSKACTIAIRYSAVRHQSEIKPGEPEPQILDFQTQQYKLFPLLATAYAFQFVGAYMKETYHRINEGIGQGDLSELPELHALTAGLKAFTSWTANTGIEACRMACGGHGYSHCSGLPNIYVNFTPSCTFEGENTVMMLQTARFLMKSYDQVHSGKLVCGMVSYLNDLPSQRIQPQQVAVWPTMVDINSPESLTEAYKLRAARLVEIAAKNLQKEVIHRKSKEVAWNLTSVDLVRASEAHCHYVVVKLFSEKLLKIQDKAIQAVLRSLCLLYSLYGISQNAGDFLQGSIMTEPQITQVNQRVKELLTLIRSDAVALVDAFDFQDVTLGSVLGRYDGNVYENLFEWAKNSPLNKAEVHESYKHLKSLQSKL

[2] = target: Calcium/calmodulin-dependent protein kinase type II subunit delta (Homo sapiens, UniProt Q13557)
[3] = target: Tyrosine-protein kinase CSK (Homo sapiens, UniProt P41240)
GTP-binding protein 4 = GTP-binding protein 4 (Homo sapiens, UniProt Q9BZE4)
[4] = target: T2, Phosphorylase b kinase gamma catalytic chain, liver/testis isoform (Homo sapiens, UniProt P15735)
T2 sequence (P15735 whole entry): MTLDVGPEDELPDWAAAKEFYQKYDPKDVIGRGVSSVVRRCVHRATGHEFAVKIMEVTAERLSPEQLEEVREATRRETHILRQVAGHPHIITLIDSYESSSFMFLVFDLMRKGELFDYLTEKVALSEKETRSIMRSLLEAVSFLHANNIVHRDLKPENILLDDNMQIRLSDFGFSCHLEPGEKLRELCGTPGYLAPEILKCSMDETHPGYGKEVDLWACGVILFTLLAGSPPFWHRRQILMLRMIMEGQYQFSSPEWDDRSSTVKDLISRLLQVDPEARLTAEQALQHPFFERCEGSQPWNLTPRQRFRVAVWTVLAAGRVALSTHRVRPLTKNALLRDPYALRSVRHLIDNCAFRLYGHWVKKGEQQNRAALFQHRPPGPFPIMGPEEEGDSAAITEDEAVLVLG

[5] = target: T3, Ras-related protein Rab-10 (Homo sapiens, UniProt P61026)
T3 sequence (P61026 whole entry): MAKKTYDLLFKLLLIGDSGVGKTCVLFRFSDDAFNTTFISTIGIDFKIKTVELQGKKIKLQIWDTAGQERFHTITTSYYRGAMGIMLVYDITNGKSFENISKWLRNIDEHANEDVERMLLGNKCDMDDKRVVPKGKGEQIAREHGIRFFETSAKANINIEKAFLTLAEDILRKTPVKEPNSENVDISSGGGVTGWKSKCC

[6] = target: T4, Exosome RNA helicase MTR4 (Homo sapiens, UniProt P42285)
T4 sequence (P42285 whole entry): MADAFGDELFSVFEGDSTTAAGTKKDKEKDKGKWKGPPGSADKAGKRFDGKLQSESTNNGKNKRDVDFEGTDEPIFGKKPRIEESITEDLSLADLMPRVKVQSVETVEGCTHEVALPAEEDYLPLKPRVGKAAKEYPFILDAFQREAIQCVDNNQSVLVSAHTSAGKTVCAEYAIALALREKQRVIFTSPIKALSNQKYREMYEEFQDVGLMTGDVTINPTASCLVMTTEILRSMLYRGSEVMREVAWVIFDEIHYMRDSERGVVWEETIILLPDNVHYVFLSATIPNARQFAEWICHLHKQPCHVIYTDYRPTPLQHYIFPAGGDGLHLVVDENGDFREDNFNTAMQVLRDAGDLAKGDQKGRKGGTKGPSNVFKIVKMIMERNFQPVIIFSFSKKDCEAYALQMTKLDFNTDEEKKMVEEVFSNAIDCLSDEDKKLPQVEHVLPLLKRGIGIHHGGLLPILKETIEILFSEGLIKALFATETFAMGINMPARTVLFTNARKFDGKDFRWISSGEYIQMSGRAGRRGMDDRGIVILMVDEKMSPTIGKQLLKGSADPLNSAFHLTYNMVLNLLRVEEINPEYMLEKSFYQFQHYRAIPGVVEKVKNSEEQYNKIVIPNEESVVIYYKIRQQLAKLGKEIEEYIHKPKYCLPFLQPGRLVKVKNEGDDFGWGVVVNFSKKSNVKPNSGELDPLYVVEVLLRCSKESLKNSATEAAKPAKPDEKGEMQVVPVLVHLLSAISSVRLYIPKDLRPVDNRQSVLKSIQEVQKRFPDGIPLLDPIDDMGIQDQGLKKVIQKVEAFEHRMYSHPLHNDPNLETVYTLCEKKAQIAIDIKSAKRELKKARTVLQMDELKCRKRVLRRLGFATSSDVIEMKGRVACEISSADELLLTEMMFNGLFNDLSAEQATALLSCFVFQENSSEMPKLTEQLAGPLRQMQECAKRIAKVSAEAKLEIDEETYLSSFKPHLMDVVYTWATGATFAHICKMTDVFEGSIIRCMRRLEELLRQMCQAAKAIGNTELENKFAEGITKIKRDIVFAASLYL

[7] = target: Elongation factor Tu, mitochondrial (Homo sapiens, UniProt P49411)
[8] = target: Mitogen-activated protein kinase kinase kinase 20 (Homo sapiens, UniProt Q9NYL2)
Activated CDC42 kinase 1 = Activated CDC42 kinase 1 (Homo sapiens, UniProt Q07912)
Also: in the data inactive means no Kd found up to 30 µM.

Sequence of Calcium/calmodulin-dependent protein kinase type II subunit delta (Q13557 whole entry): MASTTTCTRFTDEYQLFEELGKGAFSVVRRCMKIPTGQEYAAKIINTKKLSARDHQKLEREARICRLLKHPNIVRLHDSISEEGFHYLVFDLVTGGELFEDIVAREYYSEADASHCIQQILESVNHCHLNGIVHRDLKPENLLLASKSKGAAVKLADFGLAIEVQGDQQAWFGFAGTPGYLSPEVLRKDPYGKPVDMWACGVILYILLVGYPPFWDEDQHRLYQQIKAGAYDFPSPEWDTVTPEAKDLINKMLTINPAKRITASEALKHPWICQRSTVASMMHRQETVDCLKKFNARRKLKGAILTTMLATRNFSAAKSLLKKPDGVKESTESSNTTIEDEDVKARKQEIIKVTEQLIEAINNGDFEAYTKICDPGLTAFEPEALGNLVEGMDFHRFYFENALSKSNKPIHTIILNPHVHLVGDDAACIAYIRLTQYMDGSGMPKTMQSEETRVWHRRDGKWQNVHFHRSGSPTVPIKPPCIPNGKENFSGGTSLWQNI
Sequence of Tyrosine-protein kinase CSK (P41240 whole entry): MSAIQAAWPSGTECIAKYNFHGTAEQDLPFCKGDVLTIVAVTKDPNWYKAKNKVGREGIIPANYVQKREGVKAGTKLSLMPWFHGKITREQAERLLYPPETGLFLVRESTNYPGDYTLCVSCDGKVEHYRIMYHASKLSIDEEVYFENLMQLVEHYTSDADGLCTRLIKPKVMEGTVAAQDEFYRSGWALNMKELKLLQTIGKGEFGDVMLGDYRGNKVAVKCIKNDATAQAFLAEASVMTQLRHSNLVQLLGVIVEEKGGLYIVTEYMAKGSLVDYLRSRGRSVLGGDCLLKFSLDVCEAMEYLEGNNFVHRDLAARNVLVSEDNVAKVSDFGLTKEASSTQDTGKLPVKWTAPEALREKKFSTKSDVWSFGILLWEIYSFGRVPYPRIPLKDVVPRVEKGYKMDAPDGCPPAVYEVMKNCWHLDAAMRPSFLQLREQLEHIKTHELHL
Sequence of Mitogen-activated protein kinase kinase kinase 20 (Q9NYL2 whole entry): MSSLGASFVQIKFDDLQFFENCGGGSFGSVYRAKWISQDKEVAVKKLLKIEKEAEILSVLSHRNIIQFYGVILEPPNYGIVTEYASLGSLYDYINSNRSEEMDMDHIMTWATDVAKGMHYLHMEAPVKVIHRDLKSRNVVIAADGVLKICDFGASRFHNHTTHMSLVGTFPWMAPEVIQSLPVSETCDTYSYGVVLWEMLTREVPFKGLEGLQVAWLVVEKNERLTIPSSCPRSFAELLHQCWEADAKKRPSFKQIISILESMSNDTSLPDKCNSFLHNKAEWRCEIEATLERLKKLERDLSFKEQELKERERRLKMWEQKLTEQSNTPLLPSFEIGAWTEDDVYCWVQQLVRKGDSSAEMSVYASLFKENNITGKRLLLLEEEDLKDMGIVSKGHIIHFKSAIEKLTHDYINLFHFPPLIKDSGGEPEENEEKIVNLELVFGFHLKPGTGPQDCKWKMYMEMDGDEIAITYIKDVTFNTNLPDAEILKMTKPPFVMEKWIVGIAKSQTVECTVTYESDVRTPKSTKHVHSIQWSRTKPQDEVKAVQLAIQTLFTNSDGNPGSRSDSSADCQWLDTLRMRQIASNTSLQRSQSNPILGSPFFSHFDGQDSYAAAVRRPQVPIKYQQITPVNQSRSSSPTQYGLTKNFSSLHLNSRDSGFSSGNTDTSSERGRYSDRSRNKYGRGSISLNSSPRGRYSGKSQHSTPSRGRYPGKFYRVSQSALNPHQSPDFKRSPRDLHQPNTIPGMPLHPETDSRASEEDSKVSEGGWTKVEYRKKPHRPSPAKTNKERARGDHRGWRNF
Sequence of Activated CDC42 kinase 1 (Q07912 whole entry): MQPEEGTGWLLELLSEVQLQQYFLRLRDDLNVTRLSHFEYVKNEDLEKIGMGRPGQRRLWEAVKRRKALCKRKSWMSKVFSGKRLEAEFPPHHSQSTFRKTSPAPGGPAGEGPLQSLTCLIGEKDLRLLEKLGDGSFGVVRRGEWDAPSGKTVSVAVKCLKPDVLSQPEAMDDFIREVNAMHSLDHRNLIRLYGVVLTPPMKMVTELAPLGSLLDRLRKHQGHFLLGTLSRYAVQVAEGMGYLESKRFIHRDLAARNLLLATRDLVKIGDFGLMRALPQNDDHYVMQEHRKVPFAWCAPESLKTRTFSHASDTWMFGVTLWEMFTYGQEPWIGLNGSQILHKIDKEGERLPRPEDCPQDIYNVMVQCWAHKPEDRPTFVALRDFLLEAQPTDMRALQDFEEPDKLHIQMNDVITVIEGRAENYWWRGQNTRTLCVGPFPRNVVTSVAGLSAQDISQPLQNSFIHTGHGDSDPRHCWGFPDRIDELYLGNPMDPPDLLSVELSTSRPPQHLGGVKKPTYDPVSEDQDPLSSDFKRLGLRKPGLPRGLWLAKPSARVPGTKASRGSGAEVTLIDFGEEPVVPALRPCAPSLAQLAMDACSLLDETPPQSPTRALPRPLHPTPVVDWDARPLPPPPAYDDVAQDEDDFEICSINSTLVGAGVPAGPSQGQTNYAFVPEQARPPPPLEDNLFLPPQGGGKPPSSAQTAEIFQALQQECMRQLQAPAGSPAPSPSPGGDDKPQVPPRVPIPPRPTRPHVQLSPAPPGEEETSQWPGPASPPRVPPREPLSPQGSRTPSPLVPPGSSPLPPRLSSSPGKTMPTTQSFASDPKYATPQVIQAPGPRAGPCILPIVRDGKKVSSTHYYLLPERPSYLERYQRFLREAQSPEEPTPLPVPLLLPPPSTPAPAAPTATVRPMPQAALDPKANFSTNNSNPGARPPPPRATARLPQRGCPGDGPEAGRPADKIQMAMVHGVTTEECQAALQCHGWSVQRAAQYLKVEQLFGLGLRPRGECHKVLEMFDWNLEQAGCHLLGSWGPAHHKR

SMILES | Kd [1] | Kd [2] | Kd [3] | Kd (GTP-binding protein 4) | Kd [4] | Kd [5] | Kd [6] | Kd [7] | Kd [8] | Kd (Activated CDC42 kinase 1)
CCc1cnn2c(NCc3ccc[n+]([O-])c3)cc(N3CCCC[C@H]3CCO)nc12 [DINACICLIB] | > 30 µM (inactive) | > 30 µM (inactive) | > 30 µM (inactive) | > 30 µM (inactive) | > 30 µM (inactive) | > 30 µM (inactive) | > 30 µM (inactive) | > 30 µM (inactive) | > 30 µM (inactive) | –
COc1cc2nccc(Oc3ccc(NC(=O)Nc4cc(C)on4)c(Cl)c3)c2cc1OC [TIVOZANIB] | > 30 µM (inactive) | > 30 µM (inactive) | > 30 µM (inactive) | > 30 µM (inactive) | > 30 µM (inactive) | > 30 µM (inactive) | > 30 µM (inactive) | > 30 µM (inactive) | – | > 30 µM (inactive)
COC(=O)[C@@]1(O)C[C@H]2O[C@]1(C)n1c3ccccc3c3c4c(c5c6ccccc6n2c5c31)C(=O)NC4 [K-252A] | > 30 µM (inactive) | 0.19 µM (active) | > 30 µM (inactive) | > 30 µM (inactive) | 3.26 µM (active) | > 30 µM (inactive) | > 30 µM (inactive) | > 30 µM (inactive) | > 30 µM (inactive) | –
COc1cc(OC)c(/C=C/S(=O)(=O)Cc2ccc(OC)c(NCC(=O)O)c2)c(OC)c1 [RIGOSERTIB] | – | > 30 µM (inactive) | > 30 µM (inactive) | > 30 µM (inactive) | > 30 µM (inactive) | > 30 µM (inactive) | > 30 µM (inactive) | > 30 µM (inactive) | > 30 µM (inactive) | > 30 µM (inactive)
Cc1ccc(-n2nc(C(C)(C)C)cc2NC(=O)NCc2cc(F)ccc2Oc2ccc3c(cnn3CCO)c2)cc1 [PEXMETINIB] | – | > 30 µM (inactive) | > 30 µM (inactive) | > 30 µM (inactive) | > 30 µM (inactive) | > 30 µM (inactive) | > 30 µM (inactive) | > 30 µM (inactive) | 1.25 µM (active) | > 30 µM (inactive)
Cc1cn(-c2cc(NC(=O)c3ccc(C)c(Nc4nccc(-c5cccnc5)n4)c3)cc(C(F)(F)F)c2)cn1 [NILOTINIB] | – | – | – | > 30 µM (inactive) | – | > 30 µM (inactive) | > 30 µM (inactive) | > 30 µM (inactive) | – | –
Cc1cc(Nc2cc(N3CCN(C)CC3)nc(/C=C/c3ccccc3)n2)n[nH]1 [ENMD-2076] | > 30 µM (inactive) | – | > 30 µM (inactive) | > 30 µM (inactive) | – | > 30 µM (inactive) | > 30 µM (inactive) | > 30 µM (inactive) | – | –
OCCn1cc(-c2cnc3nnn(Cc4ccc5ncccc5c4)c3n2)cn1 [PF-04217903] | > 30 µM (inactive) | > 30 µM (inactive) | > 30 µM (inactive) | > 30 µM (inactive) | > 30 µM (inactive) | > 30 µM (inactive) | > 30 µM (inactive) | > 30 µM (inactive) | > 30 µM (inactive) | –
O=C(Nc1cccc(Cl)c1)Nc1ncc(CCNc2ncnc3ccsc23)s1 [SNS-314] | > 30 µM (inactive) | – | > 30 µM (inactive) | > 30 µM (inactive) | – | > 30 µM (inactive) | > 30 µM (inactive) | > 30 µM (inactive) | – | –
Cc1nc(N)sc1-c1ccnc(Nc2ccc(N3CCOCC3)cc2)n1 [CYC-116] | > 30 µM (inactive) | – | > 30 µM (inactive) | > 30 µM (inactive) | – | > 30 µM (inactive) | > 30 µM (inactive) | > 30 µM (inactive) | – | –
COC(=O)N[C@@H](C)CNc1nccc(-c2cn(C(C)C)nc2-c2cc(Cl)cc(NS(C)(=O)=O)c2F)n1 [ENCORAFENIB] | > 30 µM (inactive) | > 30 µM (inactive) | > 30 µM (inactive) | > 30 µM (inactive) | > 30 µM (inactive) | > 30 µM (inactive) | > 30 µM (inactive) | > 30 µM (inactive) | – | > 30 µM (inactive)
COCCNCc1ccc(-c2cc3nccc(Oc4ccc(NC(=S)NC(=O)Cc5ccc(F)cc5)cc4F)c3s2)nc1 [GLESATINIB] | – | > 30 µM (inactive) | > 30 µM (inactive) | > 30 µM (inactive) | > 30 µM (inactive) | > 30 µM (inactive) | > 30 µM (inactive) | > 30 µM (inactive) | > 30 µM (inactive) | > 30 µM (inactive)
Cc1c(F)cc(C(=O)NC2CC2)cc1-c1ccc(C(=O)NCC(C)(C)C)cn1 [LOSMAPIMOD] | – | > 30 µM (inactive) | > 30 µM (inactive) | > 30 µM (inactive) | > 30 µM (inactive) | > 30 µM (inactive) | > 30 µM (inactive) | > 30 µM (inactive) | > 30 µM (inactive) | > 30 µM (inactive)
CCn1c(-c2nonc2N)nc2c(C#CC(C)(C)O)ncc(OC[C@H]3CCCNC3)c21 [GSK-690693] | > 30 µM (inactive) | – | – | – | – | > 30 µM (inactive) | > 30 µM (inactive) | > 30 µM (inactive) | – | –
O=C(O)[C@]1(Cc2cccc(Nc3nccs3)n2)CC[C@@H](Oc2cccc(Cl)c2F)CC1 [MK-5108] | – | > 30 µM (inactive) | > 30 µM (inactive) | > 30 µM (inactive) | > 30 µM (inactive) | > 30 µM (inactive) | > 30 µM (inactive) | > 30 µM (inactive) | > 30 µM (inactive) | 0.473 µM (active)
C1=C/COCc2cc(ccc2OCCN2CCCC2)Nc2nccc(n2)-c2cccc(c2)COC/1 [PACRITINIB] | > 30 µM (inactive) | > 30 µM (inactive) | > 30 µM (inactive) | > 30 µM (inactive) | > 30 µM (inactive) | > 30 µM (inactive) | > 30 µM (inactive) | > 30 µM (inactive) | – | 9.33 µM (active)
CN1CCN(c2ccc3nc(-c4c(N)c5c(F)cccc5[nH]c4=O)[nH]c3c2)CC1 [DOVITINIB] | > 30 µM (inactive) | – | – | > 30 µM (inactive) | – | > 30 µM (inactive) | > 30 µM (inactive) | > 30 µM (inactive) | – | –
Nc1nc(N)c2nc(-c3cccc(O)c3)c(-c3cccc(O)c3)nc2n1 [TG100-115] | > 30 µM (inactive) | – | – | > 30 µM (inactive) | – | > 30 µM (inactive) | > 30 µM (inactive) | > 30 µM (inactive) | – | –

Reference: ChEMBL document CHEMBL3991601, “The target landscape of clinical kinase drugs” (Science, 2017)
